Measured values taken from ChEMBL document CHEMBL4038308, “Lipophosphonoxins II: Design, Synthesis, and Properties of Novel Broad Spectrum Antibacterial Agents” (J Med Chem, 2017).
Calls of active or inactive are those of the source.

Experiments:
Assay type in all cases: functional
Bacillus subtilis [1] = test: Antibacterial activity against Bacillus subtilis assessed as inhibition of peptidoglycan synthesis at 10 mg/L after 50 mins by [3H]-N-acetylglucosamine incorporation assay
Bacillus subtilis [2] = test: Antibacterial activity against Bacillus subtilis assessed as inhibition of RNA synthesis at 10 mg/L after 50 mins by [3H]-uridine incorporation assay
Bacillus subtilis [3] = test: Antibacterial activity against Bacillus subtilis assessed as inhibition of protein synthesis at 10 mg/L after 50 mins by [35S]-methionine incorporation assay
Bacillus subtilis [4] = test: Antibacterial activity against Bacillus subtilis assessed as inhibition of DNA synthesis at 10 mg/L after 50 mins by [3H]thymidine incorporation assay
Bacillus subtilis [5] = test: Antibacterial activity against Bacillus subtilis assessed as inhibition of plasma membrane lipids synthesis at 10 mg/L after 50 mins by [3H]-sodium acetate incorporation assay

Measured: inhibition

O=C(N[C@H](CO)[C@H](O)c1ccc([N+](=O)[O-])cc1)C(Cl)Cl
active: all assays above
